Laboratory results: paper PMC11193748 (Communications Biology, 2024)
Where two headings read alike, the source gives them in different places.

Tests used:
P. infestans [1] = test system: P. infestans
LcsG = target: T1, LcsG (Purpureocillium lilacinum, UniProt A0A179H2P2); experiment: Michaelis-Menten enzyme kinetics of LcsG with leucinostatin substrates; format: biochemical, Purpureocillium lilacinum PLBJ-1; conditions: for Kcat/Km: compound as substrate of LcsG, from the Michaelis-Menten fit; for Kcat / Km: compound as substrate, 1 μM LcsG, 34 °C, 30 min, product formation by LC-MS, nonlinear regression, n = 3
T1 construct: pACYC-lcsG was generated by integrating the lcsG gene from the PLBJ-1 cDNA into the protein expression vector pACYCDuet-1; His6 (N); His6 (C); made in house; host or cells: E. coli ArcticExpress (DE3)
T1 sequence (A0A179H2P2 1-468): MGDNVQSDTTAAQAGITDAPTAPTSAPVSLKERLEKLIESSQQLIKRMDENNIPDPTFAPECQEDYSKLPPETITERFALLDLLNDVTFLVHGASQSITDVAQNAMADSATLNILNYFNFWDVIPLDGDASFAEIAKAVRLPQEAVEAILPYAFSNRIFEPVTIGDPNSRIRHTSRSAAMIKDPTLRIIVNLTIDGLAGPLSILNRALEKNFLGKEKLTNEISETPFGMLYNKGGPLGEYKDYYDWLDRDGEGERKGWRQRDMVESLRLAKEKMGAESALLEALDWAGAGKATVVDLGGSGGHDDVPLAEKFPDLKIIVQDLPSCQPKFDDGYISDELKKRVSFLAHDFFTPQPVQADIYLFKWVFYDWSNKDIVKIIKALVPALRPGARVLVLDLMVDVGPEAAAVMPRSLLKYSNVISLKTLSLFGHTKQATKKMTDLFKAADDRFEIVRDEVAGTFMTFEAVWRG
Procedure: The compounds were quantified by an external standard method and calibration curves were constructed using LeuA0 and LeuK3. In this study, LeuA0 was diluted to concentrations of 25, 50, 100, 250, and 500 nM. LeuK3 was also diluted to concentrations of 50, 100, 250, 500, and 1000 nM. Dilutions were prepared in MeCN, and calibration curves were constructed using the software GraphPad Prism 9.
The kinetic constants of LcsG were determined by the following approach: 1 μM LcsG was assayed against different specific concentrations of the substrates LeuA (2, 4, 8, 10, 20, 40, 80, 100, 120, 150, and 200 μM) and LeuK0 (4, 8, 10, 20, 40, 80, 100, 120, 140, and 160 μM). The initial rate of the reaction was measured by monitoring the formation of products (LeuA0 or LeuK3) at 34 °C for 30 min. The rates were plotted against substrate concentration using the Michaelis‒Menten kinetics equation by nonlinear regression analysis with the software GraphPad Prism 9, and Km and Kcat constants were generated from the resulting Michaelis‒Menten plot.
LC‒MS analyses were performed on an Agilent 1290 Infinity II HPLC with an Agilent Infinity Lab single quadrupole mass selective detector by using an Agilent Zorbax Eclipse Plus C18 reversed-phase column (2.1 × 100 mm, 2.7 μm). Water (A) with 0.1% (v/v) formic acid and acetonitrile (B) were used as the solvents at a flow rate of 0.25 ml min^−1. The substances were eluted with 10% (v/v) B for 1 min, subjected to a linear gradient from 10 to 100% (v/v) B for 12 min, washed with 100% solvent B for 5 min, and equilibrated with 5% solvent B for 10 min at a flow rate of 0.25 ml/min. The mass spectrometer was set in electrospray positive ion mode for ionization.

P. infestans [2] = conditions: cited from earlier work
C. neoformans = conditions: cited from earlier work

Substance | growth inhibition, agar diffusion assay (P. infestans [1]) | Kcat/Km (LcsG) [M⁻¹ s⁻¹] | Kcat (LcsG) [s⁻¹] | Km (LcsG) [µM] | growth inhibition, agar diffusion assay (C. neoformans H99) | inhibitory effects on P. infestans (P. infestans [2]; previous studies) | inhibitory effects on C. neoformans (C. neoformans) | inhibitory effects on P. infestans (P. infestans [2])
leucinostatin K0 [LeuK0] | inhibitory effects | 32.94 | 0.00624 | 189 | inhibitory effects |  |  | 
leucinostatin B [LeuB] |  |  |  |  |  | inhibitory effects | inhibitory effects | 
leucinostatin A [LeuA] |  | 65.39 | 0.00075 | 11.5 |  |  | inhibitory effects | inhibitory effects
